Reference: patent US12702149B2, “Resistant starch from natural sources and their preparation” (Arjuna Natural Private Limited, priority 2019, dated 2026)

Tested on: carrageenan induced paw oedema
Assay: Anti-inflammatory study, carrageenan induced paw oedema model
Type: in vivo, Wistar rats
Conditions: oral, fibres 50 mg/Kg, Diclofenac 10 mg/Kg
Method: Anti-inflammatory study of turmeric dietary fibre was conducted in Wistar rats. Rats were divided into 5 groups and orally administered with study samples. • Group 1: consisted of control animals and were fed with vehicle (1% tween 80) • Group 2: animals which were given Diclofenac standard (10 mg Diclofenac/Kg body weight) • Group 3: Animals were given turmeric dietary fibre having 80% total dietary fibre (50 mg/Kg) • Group 4: Animals were given soluble dietary fibre from Guar beans (50 mg/Kg) • Group 5: Animals were given modified starch from tapioca (50 mg/Kg) Then after 30 mins, the treated rats were challenged with carrageenan (0.1 ml, 1% carrageenan suspension in 0.9% NaCl solution) by injecting to the animals in sub plantar region of the hind paw. Carrageenan is a chemical known to induce inflammation in rats. The paw volume was determined for all the animals at different time intervals (base line, 3 hr, 6 Hr) after carrageenan injection using digital plethysmometer and the percentage inhibition of inflammation was calculated using following formula: Percentage inhibition=(1−D/C)×100 • D-Represents the difference in paw volume from baseline in test/standard group. • C-Represents the difference in paw volume from baseline in the control group. A higher value of percentage inhibition indicated less paw volume in the animals as compared to control animals and more anti-inflammatory activity.

## O=C(O)Cc1ccccc1Nc1c(Cl)cccc1Cl [Diclofenac]
Average of 3 Hr and 6 Hr
  Average percentage inhibition of inflammation: 39%
Paw volume 3 hr after carrageenan
  Percentage inhibition of inflammation 3 Hr: 46%
Paw volume 6 hr after carrageenan
  Percentage inhibition of inflammation 6 Hr: 32%
